Assays:
[1] = system: MTAP-null SW1573 cancer cell line; test: 7-day viability assay, combination with an exemplar MTAP-null-selective PRMT5 inhibitor, SW1573; assay type: cell-based; conditions: in combination with an exemplar MTAP-null-selective PRMT5 inhibitor
Excerpt: FIG. 3. Combination of AG-270, a MAT2A inhibitor effect is synergistic according to the HSA model, where the synergy score quantifies the excess of the highest single compound response

[2] = system: MTAP-null SW1573 cancer cell line; test: Combination viability assay (CellTiter-Glo, 7 days), SW1573 MTAP-deleted cells; assay type: cell-based; conditions: 7-day viability assay, combination partner: exemplar MTAPnull-selective PRMT5 inhibitor
Method: A SW1573 MTAP-isogenic cell line pair was generated by either reconstituting MTAP gene expression, or by introducing an empty control vector, in the MTAP-deleted SW1573 parental cell line. The cell lines were maintained in DMEM+10% FBS in a humidified, 5% CO2 tissue culture incubator. All test compounds are maintained as 10 mM DMSO stocks.
On Day 0, MTAP-intact and MTAP-deleted cells are seeded in a 384-well plate, and incubated in a humidified, 5% CO2 tissue culture incubator for 16-24 hours. On Day 1, the test compounds are dispensed to wells at defined concentrations (n=2), and the volume of DMSO is normalized to highest class volume. The compound-treated plates are incubated for 7 days in a humidified, 5% CO2 tissue culture incubator.
On Day 7, the plates are removed from the tissue culture incubator and allowed to equilibrate to room temperature. Relative viability is assessed by addition of CellTiter-Glo reagent, and data are plotted as % of DMSO control for each compound in each cell line, with a 4-parameter fit non-linear regression model (GraphPad Prism). Synergy is determined according to the HSA model by the Combenefit software package (Version 2.021).

PRMT5 [3] = molecular target: T1, PRMT5 (Homo sapiens, UniProt O14744); test: PRMT5 biochemical IC50 assay with SAM as cofactor; conditions: PRMT5, SAM as cofactor; read-out: SAM IC50
T1 construct: purchased Viva (custom protein)

PRMT5 [4] = molecular target: T1, PRMT5; test: PRMT5 biochemical IC50 assay with no cofactor; conditions: PRMT5, no cofactor; read-out: No Cofactor/rel IC50
Excerpt: Table 1 indicates IC50 values (μM) against PRMT5 for exemplary compounds in the presence of SAM as cofactor, with no cofactor, and with MTA as cofactor, respectively (columns 4-6). […] Ki values can be calculated from the IC50 values as described in the Examples section. As detailed in the Examples section, for the assay performed in the presence of SAM, IC50=Ki×1.5 (Ki=IC50/1.5).

PRMT5 [5] = molecular target: T1, PRMT5; test: PRMT5 biochemical IC50 assay with MTA as cofactor; conditions: PRMT5, MTA as cofactor; read-out: MTA IC50
[6] = system: HAP1 MTAP-intact cell line; test: SDMA in-cell western assay, HAP1 MTAP-intact; assay type: cell-based; parameters: MTAP HAP1 intact IC50: scale not given here; conditions: HAP1 MTAP-intact
How it was run: (§1)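 Isogenic HAP1 pair: the MTAP-intact line expresses endogenous MTAP, and the deleted line is MTAP-null. Symmetric dimethylarginine was detected by in-cell western and IC50 values derived for each line.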

[7] = system: HAP1 MTAP-deleted cell line; test: SDMA in-cell western assay, HAP1 MTAP-deleted; assay type: cell-based; conditions: for IC50: Homo sapiens, HAP1, SDMA in-cell western, HAP1 MTAP-deleted, read-out: HAP1 MTAP deleted IC50; for MTAP intact/deleted ratio: SDMA in-cell western
How it was run: as §1

[8] = system: HAP1 MTAP-deleted cell line; test: Viability assay, MTAP-deleted cell line; assay type: cell-based; conditions: Homo sapiens, HAP1, viability assay, read-out: HAP1 MTAP deleted viability
Excerpt: Table 1 additionally indicates IC50 values in a viability assay for the MTAP-deleted cell line (column 10), indicating the effect of treatment with compound on cell survival.

T1 sequence (O14744 whole entry): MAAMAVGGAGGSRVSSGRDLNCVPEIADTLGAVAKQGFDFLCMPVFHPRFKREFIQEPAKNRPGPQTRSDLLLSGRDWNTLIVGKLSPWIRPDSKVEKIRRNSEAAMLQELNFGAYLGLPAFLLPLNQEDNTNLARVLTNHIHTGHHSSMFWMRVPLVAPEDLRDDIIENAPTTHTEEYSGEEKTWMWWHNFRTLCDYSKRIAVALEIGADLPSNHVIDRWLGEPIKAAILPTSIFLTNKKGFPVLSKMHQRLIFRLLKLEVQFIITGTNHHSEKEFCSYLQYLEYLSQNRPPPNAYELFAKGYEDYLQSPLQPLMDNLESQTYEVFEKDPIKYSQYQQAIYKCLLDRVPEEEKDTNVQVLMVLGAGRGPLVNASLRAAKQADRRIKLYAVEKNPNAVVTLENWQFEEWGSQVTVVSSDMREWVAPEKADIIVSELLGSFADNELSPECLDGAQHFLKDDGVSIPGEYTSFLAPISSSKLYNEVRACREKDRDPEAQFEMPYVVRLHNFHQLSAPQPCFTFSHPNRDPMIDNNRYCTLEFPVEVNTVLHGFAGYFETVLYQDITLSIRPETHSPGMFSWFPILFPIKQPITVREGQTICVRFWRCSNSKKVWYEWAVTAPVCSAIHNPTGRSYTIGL
T1 sequence (Q9BQA1 whole entry partner): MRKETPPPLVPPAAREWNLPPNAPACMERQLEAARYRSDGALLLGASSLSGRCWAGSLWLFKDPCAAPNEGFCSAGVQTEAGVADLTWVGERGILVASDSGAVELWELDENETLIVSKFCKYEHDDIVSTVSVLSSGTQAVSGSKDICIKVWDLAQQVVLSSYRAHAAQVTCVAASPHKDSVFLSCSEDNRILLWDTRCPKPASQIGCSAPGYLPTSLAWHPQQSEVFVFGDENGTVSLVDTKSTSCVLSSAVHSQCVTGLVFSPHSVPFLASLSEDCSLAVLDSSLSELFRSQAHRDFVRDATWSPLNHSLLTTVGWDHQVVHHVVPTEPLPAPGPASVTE

| SMILES | Effect of the combination on cellular viability [1] | cellular viability, combination with an exemplar MTAP-null-selective PRMT5 inhibitor [2] | IC50 (PRMT5 [3]) [nM] | IC50 (PRMT5 [4]) [nM] | IC50 (PRMT5 [5]) [nM] | IC50 [7] [nM] | further results |
| --- | --- | --- | --- | --- | --- | --- | --- |
| O=C(Nc1ccc2[nH]nc(-c3ccncc3)c2c1)[C@@H]1CCN(CC(=O)N2CCN(c3ccc(-c4ncccn4)cc3)CC2)C1 [SCH772984] | enhanced cellular viability defect | enhanced cellular viability defects | – | – | – | – | – |
| CC(C)Nc1cc(-c2c[nH]c(C(=O)N[C@H](CO)c3cccc(Cl)c3)c2)c(Cl)cn1 [ulixertinib] | enhanced cellular viability defect | enhanced cellular viability defects | – | – | – | – | – |
| C=CC(=O)N1CCN(c2nc(=O)n(-c3c(C)ccnc3C(C)C)c3nc(-c4c(O)cccc4F)c(F)cc23)[C@@H](C)C1 [AMG-510] | enhanced cellular viability defects | enhanced cellular viability defects | – | – | – | – | – |
| C[C@@H]1CN(C(=O)C(=O)Nc2cncc(C(N)=O)c2)[C@@H](c2ccc(F)cc2)C(F)(F)C1 (racemic) [Compound 836, 5-[[2-[(2S,5S)-3,3-difluoro-2-(4-fluorophenyl)-5-methyl-1-piperidyl]-2-oxo-acetyl]amino]pyridine-3-carboxamide] | – | – | 50 to 500 | 50 to 500 | < 50 | 100 to 1000 | MTAP HAP1 intact IC50 ([6]; SDMA in-cell western): C*; MTAP intact/deleted ratio ([7]; IC50 ratio HAP1 MTAP-intact / HAP1 MTAP-deleted): A (an IC50 ratio greater than or equal to 10 fold); IC50 ([8]; HAP1 MTAP-deleted): 1000 to 10000 nM |
| CCc1cc(NC(=O)C(=O)N2C[C@@H](C)CC[C@@H]2c2ccc3sc(C4CC5CCC(C4)N5C)nc3c2)cnc1N (stereo partly drawn) [Compound 1187, N-(6-amino-5-ethyl-3-pyridyl)-2-[(2R,5S)-5-methyl-2-[2-(8-methyl-8-azabicyclo[3.2.1]octan-3-yl)-1,3-benzothiazol-5-yl]-1-piperidyl]-2-oxo-acetamide] | – | – | < 50 | < 50 | < 50 | < 100 | IC50 ([6]; Homo sapiens, HAP1, SDMA in-cell western, read-out: MTAP HAP1 intact IC50): < 100 nM; MTAP intact/deleted ratio ([7]; IC50 ratio HAP1 MTAP-intact vs HAP1 MTAP-deleted): A (an IC50 ratio greater than or equal to 10 fold); IC50 ([8]; MTAP-deleted cell line): < 1000 nM |

Reference: patent publication US11999727B2 (Tango Therapeutics, Inc., priority 2020, dated 2024)
